# In the NIST ThermoML archive (doi:10.1021/je060271a):
# Values joined by “and” are separate entries in the source; they are usually repeats but may differ in a detail not shown here. Identical values can stand only once. Numbers after ± are expanded uncertainties.
# Conditions: 283.15 K, Liquid, Vibrating tube method
smiles,measurement,setting,value
CCCCCCCC(=O)OCC(COC(=O)CCCCCCC)(COC(=O)CCCCCCC)COC(=O)CCCCCCC [pentaerythritol tetraoctanoate],mass density,4499.9 kPa,972.9 ± 1.2 kg/m3
same,mass density,4501.9 kPa,972.9 ± 1.2 kg/m3
same,mass density,4502.4 kPa,972.9 ± 1.2 kg/m3
same,mass density,4503 kPa,972.9 ± 1.2 kg/m3 and 972.8 ± 1.2 kg/m3
same,mass density,4503.5 kPa,972.8 ± 1.2 kg/m3 and 972.9 ± 1.2 kg/m3
same,mass density,4505.4 kPa,972.9 ± 1.2 kg/m3
same,mass density,4508 kPa,973 ± 1.2 kg/m3
same,mass density,4510.6 kPa,972.9 ± 1.2 kg/m3
same,mass density,4512.1 kPa,972.8 ± 1.2 kg/m3
same,mass density,4513.2 kPa,972.9 ± 1.2 kg/m3
same,mass density,4519.1 kPa,972.9 ± 1.2 kg/m3
same,mass density,4544.7 kPa,972.8 ± 1.2 kg/m3
same,mass density,4566.3 kPa,972.8 ± 1.2 kg/m3
same,mass density,4589 kPa,972.9 ± 1.2 kg/m3
same,mass density,4613.1 kPa,972.9 ± 1.2 kg/m3
same,mass density,4644 kPa,972.9 ± 1.2 kg/m3
same,mass density,4671.2 kPa,973 ± 1.2 kg/m3
same,mass density,4696.3 kPa,973 ± 1.2 kg/m3
same,mass density,4730.1 kPa,973 ± 1.2 kg/m3
same,mass density,4758.6 kPa,973 ± 1.2 kg/m3
same,mass density,4787.7 kPa,973.1 ± 1.2 kg/m3
same,mass density,4817.5 kPa,973.1 ± 1.2 kg/m3
same,mass density,4847.6 kPa,972.9 ± 1.2 kg/m3
same,mass density,4883.9 kPa,973 ± 1.2 kg/m3
same,mass density,4914.4 kPa,973.1 ± 1.2 kg/m3
same,mass density,4945.7 kPa,973.1 ± 1.2 kg/m3
same,mass density,4982.7 kPa,973.1 ± 1.2 kg/m3
same,mass density,5014 kPa,973.2 ± 1.2 kg/m3
same,mass density,5046.2 kPa,973.1 ± 1.2 kg/m3
same,mass density,5085.5 kPa,973.2 ± 1.2 kg/m3
same,mass density,5118.2 kPa,973.2 ± 1.2 kg/m3
same,mass density,5152.1 kPa,973.1 ± 1.2 kg/m3
same,mass density,5187.4 kPa,973.3 ± 1.2 kg/m3
same,mass density,5230.5 kPa,973.3 ± 1.2 kg/m3
same,mass density,5268 kPa,973.4 ± 1.2 kg/m3
same,mass density,5301.1 kPa,973.3 ± 1.2 kg/m3
same,mass density,5328.4 kPa,973.3 ± 1.2 kg/m3
same,mass density,5360.9 kPa,973.4 ± 1.2 kg/m3
same,mass density,5388.3 kPa,973.3 ± 1.2 kg/m3
same,mass density,5416.4 kPa,973.3 ± 1.2 kg/m3
same,mass density,5445 kPa,973.4 ± 1.2 kg/m3
same,mass density,5479.2 kPa,973.5 ± 1.2 kg/m3
same,mass density,5507.9 kPa,973.4 ± 1.2 kg/m3
same,mass density,5537.9 kPa,973.4 ± 1.2 kg/m3
same,mass density,5567.3 kPa,973.5 ± 1.2 kg/m3
same,mass density,5603.1 kPa,973.6 ± 1.2 kg/m3
same,mass density,5664.1 kPa,973.4 ± 1.2 kg/m3
same,mass density,5695.6 kPa,973.6 ± 1.2 kg/m3
same,mass density,5733.6 kPa,973.7 ± 1.2 kg/m3
same,mass density,5766.5 kPa,973.5 ± 1.2 kg/m3
same,mass density,5806.4 kPa,973.6 ± 1.2 kg/m3
same,mass density,5839.8 kPa,973.6 ± 1.2 kg/m3
same,mass density,5864 kPa,973.6 ± 1.2 kg/m3
same,mass density,5890.1 kPa,973.8 ± 1.2 kg/m3
same,mass density,5912.2 kPa,973.6 ± 1.2 kg/m3
same,mass density,5934.9 kPa,973.7 ± 1.2 kg/m3
same,mass density,5958.4 kPa,973.7 ± 1.2 kg/m3
same,mass density,5985.4 kPa,973.8 ± 1.2 kg/m3
same,mass density,6009 kPa,973.7 ± 1.2 kg/m3
same,mass density,6033.2 kPa,973.8 ± 1.2 kg/m3
same,mass density,6058.3 kPa,973.9 ± 1.2 kg/m3
same,mass density,6083.5 kPa,973.7 ± 1.2 kg/m3
same,mass density,6114.7 kPa,973.7 ± 1.2 kg/m3
same,mass density,6133.8 kPa,973.8 ± 1.2 kg/m3
same,mass density,6146.1 kPa,973.7 ± 1.2 kg/m3
same,mass density,6160.5 kPa,973.8 ± 1.2 kg/m3
same,mass density,6172.9 kPa,973.9 ± 1.2 kg/m3
same,mass density,6185.2 kPa,973.8 ± 1.2 kg/m3
same,mass density,6197.6 kPa,973.8 ± 1.2 kg/m3
same,mass density,6211.8 kPa,973.8 ± 1.2 kg/m3
same,mass density,6223.9 kPa,973.8 ± 1.2 kg/m3
same,mass density,6236.2 kPa,973.9 ± 1.2 kg/m3
same,mass density,6249.3 kPa,973.9 ± 1.2 kg/m3
same,mass density,6264.2 kPa,973.9 ± 1.2 kg/m3
same,mass density,6277.1 kPa,974.1 ± 1.2 kg/m3
same,mass density,6289.8 kPa,973.9 ± 1.2 kg/m3
same,mass density,6302.4 kPa,973.9 ± 1.2 kg/m3
same,mass density,6317.2 kPa,973.8 ± 1.2 kg/m3
same,mass density,6330 kPa,973.9 ± 1.2 kg/m3
same,mass density,6342.8 kPa,974 ± 1.2 kg/m3
same,mass density,6358 kPa,974 ± 1.2 kg/m3
same,mass density,6370.8 kPa,973.9 ± 1.2 kg/m3
same,mass density,6383.6 kPa,973.9 ± 1.2 kg/m3
same,mass density,6399 kPa,973.9 ± 1.2 kg/m3
same,mass density,6412.5 kPa,974 ± 1.2 kg/m3
same,mass density,6425.5 kPa,973.9 ± 1.2 kg/m3
same,mass density,6438.7 kPa,974 ± 1.2 kg/m3
same,mass density,6452 kPa,974 ± 1.2 kg/m3
same,mass density,6467.9 kPa,974 ± 1.2 kg/m3
same,mass density,6481 kPa,974 ± 1.2 kg/m3
same,mass density,6494.5 kPa,974.2 ± 1.2 kg/m3
same,mass density,6510.4 kPa,974 ± 1.2 kg/m3
same,mass density,6523.9 kPa,974 ± 1.2 kg/m3
same,mass density,6537.9 kPa,974.1 ± 1.2 kg/m3
same,mass density,6551.3 kPa,973.9 ± 1.2 kg/m3
same,mass density,6567.7 kPa,974.1 ± 1.2 kg/m3
same,mass density,6581.8 kPa,974 ± 1.2 kg/m3
same,mass density,6596.4 kPa,974.1 ± 1.2 kg/m3
same,mass density,6610.8 kPa,974.1 ± 1.2 kg/m3
same,mass density,6627.5 kPa,974.1 ± 1.2 kg/m3
same,mass density,6641.5 kPa,974.1 ± 1.2 kg/m3
same,mass density,6655.5 kPa,974 ± 1.2 kg/m3
same,mass density,6669.7 kPa,974.1 ± 1.2 kg/m3
same,mass density,6686.6 kPa,974.2 ± 1.2 kg/m3
same,mass density,6700.8 kPa,974.1 ± 1.2 kg/m3
same,mass density,6715.1 kPa,974.1 ± 1.2 kg/m3
same,mass density,6732.2 kPa,974.1 ± 1.2 kg/m3
same,mass density,6746.8 kPa,974.1 ± 1.2 kg/m3
same,mass density,6761.4 kPa,974.2 ± 1.2 kg/m3
same,mass density,6776.5 kPa,974.1 ± 1.2 kg/m3
same,mass density,6793.7 kPa,974.1 ± 1.2 kg/m3
same,mass density,6808.6 kPa,974.2 ± 1.2 kg/m3
same,mass density,6823.5 kPa,974.2 ± 1.2 kg/m3
same,mass density,6838.3 kPa,974 ± 1.2 kg/m3
same,mass density,6856.4 kPa,974.1 ± 1.2 kg/m3
same,mass density,6871.7 kPa,974.2 ± 1.2 kg/m3
same,mass density,6886.9 kPa,974.2 ± 1.2 kg/m3
same,mass density,6902.1 kPa,974.3 ± 1.2 kg/m3
same,mass density,6920.2 kPa,974.3 ± 1.2 kg/m3
same,mass density,6935.4 kPa,974.3 ± 1.2 kg/m3
same,mass density,6950.9 kPa,974.3 ± 1.2 kg/m3
same,mass density,6969.4 kPa,974.3 ± 1.2 kg/m3
same,mass density,6985 kPa,974.3 ± 1.2 kg/m3
same,mass density,7001 kPa,974.3 ± 1.2 kg/m3
same,mass density,7016.8 kPa,974.3 ± 1.2 kg/m3
same,mass density,7035.6 kPa,974.3 ± 1.2 kg/m3
same,mass density,7051.3 kPa,974.3 ± 1.2 kg/m3
same,mass density,7067 kPa,974.3 ± 1.2 kg/m3
same,mass density,7083.6 kPa,974.3 ± 1.2 kg/m3
same,mass density,7102.8 kPa,974.3 ± 1.2 kg/m3
same,mass density,7119 kPa,974.3 ± 1.6 kg/m3
same,mass density,7135.2 kPa,974.4 ± 1.2 kg/m3
same,mass density,7154.7 kPa,974.4 ± 1.2 kg/m3
same,mass density,7171.1 kPa,974.3 ± 1.2 kg/m3
same,mass density,7187.5 kPa,974.3 ± 1.2 kg/m3
same,mass density,7204.5 kPa,974.4 ± 1.2 kg/m3
same,mass density,7221.2 kPa,974.5 ± 1.2 kg/m3
same,mass density,7241.1 kPa,974.5 ± 1.2 kg/m3
same,mass density,7257.8 kPa,974.4 ± 1.2 kg/m3
same,mass density,7274.9 kPa,974.6 ± 1.2 kg/m3
same,mass density,7295 kPa,974.5 ± 1.2 kg/m3
same,mass density,7311.7 kPa,974.4 ± 1.2 kg/m3
same,mass density,7329.3 kPa,974.4 ± 1.2 kg/m3
same,mass density,7346.6 kPa,974.5 ± 1.2 kg/m3
same,mass density,7367.1 kPa,974.6 ± 1.2 kg/m3
same,mass density,7384.6 kPa,974.5 ± 1.2 kg/m3
same,mass density,7402.3 kPa,974.6 ± 1.2 kg/m3
same,mass density,7423.4 kPa,974.5 ± 1.2 kg/m3
